In ChEMBL document CHEMBL1201862, “PubChem BioAssay data set” (2004):
Calls of active or inactive are those of the source.

Columns and labels:
Fatty acid synthase [1] = molecular target: T1, Fatty acid synthase (Homo sapiens, UniProt P49327); test: inhibition of human FAS-TE enzyme activity – biochemical, endpoint fluorescence intensity, uHTS hits, dose response (AID 624327); type: functional;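 further: fluorescence from hydrolysis of an O-methyl fluorescein acyl ester substrate by the enzyme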
[2] = molecular target: Beta-2 adrenergic receptor (Homo sapiens, UniProt P07550); test: ADRB2 activation measured by internalization – cell-based, FAP fluorogen, flow cytometry, cherry pick 1, dose response (AID 588763); type: functional
[3] = Luminescent dose response cell-based high throughput screening assay for inhibitors of the Janus kinase 2 mutant JAK2V617F. [Related pubchem assays: 1446 (Primary screen.), 1521 (Confirmation assay.), 1486 (Counter screen.)]; type: functional
[4] = molecular target: Sphingosine 1-phosphate receptor 1 (Homo sapiens, UniProt P21453); type: functional;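 further: Tango beta-arrestin reporter U2OS cells stimulated with S1P near its EC80; inhibitor potency meaning antagonism of receptor activation by the natural agonist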
[5] = molecular target: T2, Sphingosine 1-phosphate receptor 4 (Homo sapiens, UniProt O95977); test: Fluorescence dose response cell-based high throughput screening assay for antagonists of the Sphingosine 1-Phosphate Receptor 4 (S1P4). [Related pubchem assays: 1524 (Confirmation in triplicates.), 1510 (Primary screen.)]; type: functional
Protein RecA = molecular target: T3, Protein RecA (Mycobacterium tuberculosis, UniProt P9WHJ3); test: Fluorescence Cell-Free Homogeneous Dose Retest to Identify Inhibitors of RecA-Intein Splicing Activity. [Related pubchem assays (depositor defined):AID2097, AID2223, AID489010, AID492950]; type: functional
T3 sequence (P9WHJ3 whole entry): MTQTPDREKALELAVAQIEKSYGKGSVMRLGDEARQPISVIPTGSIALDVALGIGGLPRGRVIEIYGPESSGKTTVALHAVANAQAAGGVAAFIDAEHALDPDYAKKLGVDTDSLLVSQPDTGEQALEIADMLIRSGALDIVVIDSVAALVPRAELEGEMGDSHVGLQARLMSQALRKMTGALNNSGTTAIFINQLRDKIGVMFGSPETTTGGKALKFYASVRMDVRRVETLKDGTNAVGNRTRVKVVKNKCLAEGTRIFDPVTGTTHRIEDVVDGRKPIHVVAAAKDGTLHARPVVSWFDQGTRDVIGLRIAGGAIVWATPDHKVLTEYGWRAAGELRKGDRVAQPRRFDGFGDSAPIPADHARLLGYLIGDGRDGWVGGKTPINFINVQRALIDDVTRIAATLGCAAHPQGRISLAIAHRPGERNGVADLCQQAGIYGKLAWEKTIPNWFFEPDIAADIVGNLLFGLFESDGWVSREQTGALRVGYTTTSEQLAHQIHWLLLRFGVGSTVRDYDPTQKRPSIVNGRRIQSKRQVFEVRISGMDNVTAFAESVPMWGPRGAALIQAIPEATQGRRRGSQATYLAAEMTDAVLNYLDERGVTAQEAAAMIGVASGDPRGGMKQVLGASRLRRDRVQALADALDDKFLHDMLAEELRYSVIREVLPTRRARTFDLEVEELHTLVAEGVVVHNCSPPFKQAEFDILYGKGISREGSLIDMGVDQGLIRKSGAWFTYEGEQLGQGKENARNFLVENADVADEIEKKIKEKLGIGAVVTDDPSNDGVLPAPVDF

[6] = molecular target: T4, Replicative DNA helicase DnaB (Mycobacterium tuberculosis, UniProt P9WMR3); test: DnaB intein splicing inhibitors, dose response, biochemical, cell-free fluorescence (AID 449749); type: functional
T4 sequence (P9WMR3 whole entry): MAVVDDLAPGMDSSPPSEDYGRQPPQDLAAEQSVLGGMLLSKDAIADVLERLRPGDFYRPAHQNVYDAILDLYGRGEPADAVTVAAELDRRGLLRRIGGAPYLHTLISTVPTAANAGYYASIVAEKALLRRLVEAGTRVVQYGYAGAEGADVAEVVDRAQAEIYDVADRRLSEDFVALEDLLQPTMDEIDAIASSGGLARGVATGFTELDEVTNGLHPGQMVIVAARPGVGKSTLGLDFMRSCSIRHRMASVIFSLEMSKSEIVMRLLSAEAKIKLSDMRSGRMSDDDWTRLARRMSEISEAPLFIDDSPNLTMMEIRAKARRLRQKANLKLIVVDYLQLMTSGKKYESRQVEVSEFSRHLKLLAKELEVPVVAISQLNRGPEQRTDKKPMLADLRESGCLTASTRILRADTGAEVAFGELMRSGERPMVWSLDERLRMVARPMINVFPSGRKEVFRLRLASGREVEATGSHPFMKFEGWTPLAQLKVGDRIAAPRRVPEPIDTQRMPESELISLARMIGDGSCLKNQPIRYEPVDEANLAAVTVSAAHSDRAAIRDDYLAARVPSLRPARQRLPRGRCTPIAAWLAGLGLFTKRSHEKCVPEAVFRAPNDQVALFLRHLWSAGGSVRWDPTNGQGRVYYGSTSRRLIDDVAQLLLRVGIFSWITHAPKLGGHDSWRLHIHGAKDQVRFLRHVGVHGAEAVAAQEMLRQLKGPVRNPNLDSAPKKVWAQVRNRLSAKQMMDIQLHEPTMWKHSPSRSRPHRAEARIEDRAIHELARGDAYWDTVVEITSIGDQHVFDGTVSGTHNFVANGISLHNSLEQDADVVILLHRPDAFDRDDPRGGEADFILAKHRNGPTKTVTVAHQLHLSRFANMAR

[7] = molecular target: T2, Sphingosine 1-phosphate receptor 4; test: Late stage fluorescence dose response cell-based screening assay for antagonists of the Sphingosine 1-Phosphate Receptor 4 (S1P4). [Related pubchem assays: 1524 (Confirmation screen (S1P4 antagonists).), 1510 (Primary screen (S1P4 antagonists).), 1853 (Summary AID (S1P4 antagonists).), 1692 (Dose response screen (S1P4 antagonists).)]; type: functional
Fatty acid synthase [8] = molecular target: T1, Fatty acid synthase; test: inhibition of human FAS-TE enzyme activity – biochemical, kinetic fluorescence intensity, dose response (AID 624326); type: functional;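 further: rate of fluorescence rise from hydrolysis of a fluorogenic O-methyl fluorescein ester substrate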
[9] = molecular target: Heat shock protein HSP 90-alpha (Homo sapiens, UniProt P07900); type: functional, organism-based
[10] = molecular target: DNA (cytosine-5)-methyltransferase 1 (Homo sapiens, UniProt P26358); test: inhibition of DNA methylation by DNMT1 – biochemical, fluorescent molecular beacon, confirmation (AID 602386); type: functional
[11] = molecular target: G-protein coupled receptor 55 (Homo sapiens, UniProt Q9Y2T6); test: selective activators of receptor GPR55 – imaging, U2OS cells, beta-arrestin-GFP redistribution, primary screen (AID 1961); type: functional
Vero = test: viability of Vero cells under compound – cytotoxicity control for flavivirus capping enzyme inhibitors (AID 588742); type: functional; details: Chlorocebus sabaeus
Hexokinase HKDC1 = molecular target: T5, Hexokinase HKDC1 (Homo sapiens, UniProt Q2TB90); test: inhibition of HKDC1 glucose phosphorylation – biochemical, W721R variant, dose response (AID 504729); type: functional
T5 sequence (Q2TB90 whole entry): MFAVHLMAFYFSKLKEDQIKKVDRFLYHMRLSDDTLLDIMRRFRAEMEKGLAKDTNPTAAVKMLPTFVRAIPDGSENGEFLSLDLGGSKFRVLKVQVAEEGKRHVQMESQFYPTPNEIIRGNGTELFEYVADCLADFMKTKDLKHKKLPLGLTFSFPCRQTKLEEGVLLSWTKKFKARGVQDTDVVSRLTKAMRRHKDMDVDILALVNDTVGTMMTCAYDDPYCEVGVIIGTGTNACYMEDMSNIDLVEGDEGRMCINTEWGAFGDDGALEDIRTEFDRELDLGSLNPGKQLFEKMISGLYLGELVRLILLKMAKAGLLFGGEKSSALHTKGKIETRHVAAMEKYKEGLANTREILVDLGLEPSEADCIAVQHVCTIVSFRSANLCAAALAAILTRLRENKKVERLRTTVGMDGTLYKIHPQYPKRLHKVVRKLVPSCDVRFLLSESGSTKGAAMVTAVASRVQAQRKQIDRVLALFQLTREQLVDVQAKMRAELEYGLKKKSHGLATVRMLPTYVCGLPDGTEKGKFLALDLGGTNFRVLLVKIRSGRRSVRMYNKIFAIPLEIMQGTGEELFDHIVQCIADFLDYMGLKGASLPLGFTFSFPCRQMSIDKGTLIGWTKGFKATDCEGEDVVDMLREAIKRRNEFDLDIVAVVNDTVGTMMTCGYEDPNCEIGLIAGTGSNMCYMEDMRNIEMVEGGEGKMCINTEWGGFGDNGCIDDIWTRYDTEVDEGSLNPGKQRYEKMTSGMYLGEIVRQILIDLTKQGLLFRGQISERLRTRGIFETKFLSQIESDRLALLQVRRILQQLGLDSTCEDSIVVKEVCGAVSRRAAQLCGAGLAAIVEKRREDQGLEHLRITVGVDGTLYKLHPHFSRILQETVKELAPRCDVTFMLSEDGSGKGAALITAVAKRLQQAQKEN

[12] = loss of viability in HepG2 cells – cell-based, CellTiter-Glo, cherry-picked, cytotoxicity control for Shn3 inhibitor project, dose response (AID 624134); type: functional
[13] = fluconazole-exposed Candida albicans growth modulators – fluorescence, retest, confirmation (AID 2467); type: functional, cell-based
[14] = molecular target: Serine/threonine-protein phosphatase (Candida dubliniensis (strain CD36 / CBS 7987 / NCPF 3949 / NRRLY-17841) (Yeast), UniProt B9W6M3); test: blockers of CaCl2-induced CDRE-lacZ signaling – S. cerevisiae, luminescence, secondary, dose response (AID 2388); type: functional, cell-based;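 further: yeast reporter cells carrying a calcineurin-responsive lacZ construct stimulated with calcium chloride; luminescent beta-galactosidase reporter signal in whole cells rather than isolated phosphatase activity; potency for inhibition where a drop in reporter signal means calcineurin blockade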
[15] = molecular target: ATP-dependent molecular chaperone HSP82 (Candida albicans (strain WO-1) (Yeast), UniProt C4YTQ8); test: steroid-induced GRE reporter decrease in yeast – S. cerevisiae, luminescence, Hsp90 inhibitor project, dose response (AID 2400); type: functional, cell-based;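 further: beta-galactosidase luminescence from glucocorticoid response element reporter as proxy for Hsp90 function; inhibitor potency where signal loss means Hsp90 inhibition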
HEK293 [16] = test: HEK293T cell viability loss, resazurin readout – resazurin fluorescence, cytotoxicity control for NF-kB activator project, SAR follow-up (AID 493251); type: functional, cell-based; details: Homo sapiens
BJ [17] = test: BJ-TERT fibroblast viability loss – cell-based, RAS-independent, luminescence, dose response (AID 1933); type: functional; details: Homo sapiens
[18] = Luminescence-based dose response cell-based high throughput screening assay for cytotoxic compounds using the IEC-6 intestinal epithelial cell line. [Related pubchem assays: 1858 (Summary AID.), 1825 (Counterscreen.), 1907 (Confirmation screen.)]; type: functional
cells [19] = type: functional, cell-based
HEK293 [20] = test: EBV LMP1 TES2 canonical NF-kB signalling blockers – cell-based, HEK293, luciferase, cherry-pick, dose response (AID 588343); type: functional; details: Homo sapiens
BJ [21] = test: BJ-TERT-LT-ST fibroblast viability loss – cell-based, RAS-independent, luminescence, dose response (AID 1935); type: functional; details: Homo sapiens;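 further: BJ fibroblasts immortalized with TERT plus LT and ST oncogenes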
[22] = NIH-3T3 fibroblast cytotoxicity, dose response, cytotoxicity control, cell-based, fluorescence, Alamar Blue, secondary assay (AID 2327); type: functional;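 further: NIH-3T3 mouse fibroblasts cultured with fluconazole at 8 µg/mL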
HEK293 [23] = test: SAR Analysis of small molecule inhibitors of T-cell specific antigen receptor-induced NF-kB activation in a HEK-293T cell line using a luminescence assay - Set 2. [Related pubchem assays (depositor defined):AID435003, AID435012, AID489026]; type: functional, cell-based; details: Homo sapiens
INS1 = test: INS-1E survival protection against cytokine death – cell-based, luminescence, retest, dose response (AID 449756); type: functional; details: Rattus norvegicus;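 further: cell death triggered by IL-1 beta plus TNF-alpha plus IFN-gamma mixture; protective hits raise ATP signal compared with cytokine alone wells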
[24] = reduction of Shn3 3'UTR-driven luciferase in osteoblasts – cell-based, Clone20 osteoblasts, firefly luciferase, cherry-picked, dose response (AID 624132); type: functional;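 further: firefly luciferase luminescence from reporter carrying the Shn3 3'UTR in osteoblasts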
Jurkat = test: SAR Analysis of small molecule inhibitors of T-cell specific antigen receptor-induced NF-kB activation in a Jurkat cell line using a luminescence assay - Set 2. [Related pubchem assays (depositor defined):AID435003, AID435012, AID465]; type: functional, cell-based; details: Homo sapiens
cells [25] = type: functional, cell-based; remark: listed apart in the source
[26] = non-specific 3'UTR reporter inhibition in Clone20-Shn3RL – cell-based, Renilla luciferase, cherry-picked, counter-screen for Shn3 inhibitor project, dose response (AID 624133); type: functional
BJ [27] = test: cells; type: functional, cell-based; details: Homo sapiens
[28] = HEK-293T viability loss after treatment – luminescence, T-cell screen hits, cytotoxicity control for TCR NF-kB inhibitor project, dose response (AID 489026); type: functional, cell-based;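 further: cells exposed to compound about 14 hours before the viability readout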
[29] = DRD fibroblast viability loss – cell-based, non-viral oncogenic, luminescence, dose response (AID 1934); type: functional; details: Homo sapiens

T1 sequence (P49327 whole entry): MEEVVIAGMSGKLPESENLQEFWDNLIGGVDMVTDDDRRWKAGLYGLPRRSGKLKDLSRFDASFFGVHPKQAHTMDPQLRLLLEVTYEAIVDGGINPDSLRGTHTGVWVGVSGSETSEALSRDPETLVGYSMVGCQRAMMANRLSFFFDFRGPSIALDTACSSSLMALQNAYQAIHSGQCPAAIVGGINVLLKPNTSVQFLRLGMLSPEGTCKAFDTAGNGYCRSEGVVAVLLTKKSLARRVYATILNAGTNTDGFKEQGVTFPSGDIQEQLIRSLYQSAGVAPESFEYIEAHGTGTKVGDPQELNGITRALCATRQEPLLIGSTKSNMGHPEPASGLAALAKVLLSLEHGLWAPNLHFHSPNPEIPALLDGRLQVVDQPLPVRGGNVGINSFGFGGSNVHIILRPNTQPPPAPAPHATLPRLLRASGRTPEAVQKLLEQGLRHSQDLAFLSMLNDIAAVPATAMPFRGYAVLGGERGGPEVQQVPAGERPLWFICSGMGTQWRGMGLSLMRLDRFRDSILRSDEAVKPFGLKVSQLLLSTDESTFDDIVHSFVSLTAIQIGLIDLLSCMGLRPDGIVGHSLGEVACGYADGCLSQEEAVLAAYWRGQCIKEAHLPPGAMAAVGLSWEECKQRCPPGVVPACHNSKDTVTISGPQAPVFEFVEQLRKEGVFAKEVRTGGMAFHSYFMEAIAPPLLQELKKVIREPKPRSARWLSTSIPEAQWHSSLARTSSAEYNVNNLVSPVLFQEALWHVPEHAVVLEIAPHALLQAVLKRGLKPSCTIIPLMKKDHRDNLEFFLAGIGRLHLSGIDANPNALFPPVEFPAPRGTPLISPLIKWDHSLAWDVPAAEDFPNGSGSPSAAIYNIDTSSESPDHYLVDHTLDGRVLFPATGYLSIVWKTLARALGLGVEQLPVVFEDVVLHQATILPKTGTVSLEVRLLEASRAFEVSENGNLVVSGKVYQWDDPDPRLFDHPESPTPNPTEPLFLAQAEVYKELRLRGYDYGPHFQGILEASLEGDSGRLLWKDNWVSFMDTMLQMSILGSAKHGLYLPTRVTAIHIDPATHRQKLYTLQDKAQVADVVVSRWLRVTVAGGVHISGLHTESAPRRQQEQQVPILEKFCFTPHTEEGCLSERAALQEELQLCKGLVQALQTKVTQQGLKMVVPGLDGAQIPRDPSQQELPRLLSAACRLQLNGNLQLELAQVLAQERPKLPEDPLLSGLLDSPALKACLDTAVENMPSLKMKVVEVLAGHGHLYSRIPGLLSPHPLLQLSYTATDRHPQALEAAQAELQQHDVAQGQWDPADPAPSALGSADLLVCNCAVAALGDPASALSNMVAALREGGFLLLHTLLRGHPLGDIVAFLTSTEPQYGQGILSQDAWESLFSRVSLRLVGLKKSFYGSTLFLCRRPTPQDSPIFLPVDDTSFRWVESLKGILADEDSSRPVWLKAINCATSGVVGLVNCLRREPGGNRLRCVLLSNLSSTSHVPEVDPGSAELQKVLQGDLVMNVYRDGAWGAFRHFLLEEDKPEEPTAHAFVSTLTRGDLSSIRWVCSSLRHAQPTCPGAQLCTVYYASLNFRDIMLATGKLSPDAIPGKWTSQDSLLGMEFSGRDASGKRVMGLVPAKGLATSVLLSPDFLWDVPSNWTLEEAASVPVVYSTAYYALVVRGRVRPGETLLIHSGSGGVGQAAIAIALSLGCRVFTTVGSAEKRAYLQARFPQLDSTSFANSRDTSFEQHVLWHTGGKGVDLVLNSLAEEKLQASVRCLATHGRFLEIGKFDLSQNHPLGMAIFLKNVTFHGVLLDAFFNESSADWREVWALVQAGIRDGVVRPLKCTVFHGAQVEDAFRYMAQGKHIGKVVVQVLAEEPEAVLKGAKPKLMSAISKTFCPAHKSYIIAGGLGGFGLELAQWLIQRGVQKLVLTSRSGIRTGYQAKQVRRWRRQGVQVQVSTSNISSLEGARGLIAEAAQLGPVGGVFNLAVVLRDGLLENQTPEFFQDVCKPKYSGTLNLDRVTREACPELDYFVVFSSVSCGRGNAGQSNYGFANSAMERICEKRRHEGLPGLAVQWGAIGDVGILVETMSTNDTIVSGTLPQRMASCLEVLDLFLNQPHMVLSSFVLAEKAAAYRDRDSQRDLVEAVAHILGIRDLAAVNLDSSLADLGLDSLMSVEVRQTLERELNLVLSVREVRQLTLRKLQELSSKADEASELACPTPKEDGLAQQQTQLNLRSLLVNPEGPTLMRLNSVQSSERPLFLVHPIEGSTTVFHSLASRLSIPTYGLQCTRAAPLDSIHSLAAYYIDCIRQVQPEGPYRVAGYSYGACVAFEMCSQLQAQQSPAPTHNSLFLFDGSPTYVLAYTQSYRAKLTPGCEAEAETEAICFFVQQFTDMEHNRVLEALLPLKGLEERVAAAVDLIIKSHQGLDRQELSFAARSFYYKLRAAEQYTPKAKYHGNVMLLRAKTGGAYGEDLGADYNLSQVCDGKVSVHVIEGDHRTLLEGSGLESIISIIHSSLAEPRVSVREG
T2 sequence (O95977 whole entry): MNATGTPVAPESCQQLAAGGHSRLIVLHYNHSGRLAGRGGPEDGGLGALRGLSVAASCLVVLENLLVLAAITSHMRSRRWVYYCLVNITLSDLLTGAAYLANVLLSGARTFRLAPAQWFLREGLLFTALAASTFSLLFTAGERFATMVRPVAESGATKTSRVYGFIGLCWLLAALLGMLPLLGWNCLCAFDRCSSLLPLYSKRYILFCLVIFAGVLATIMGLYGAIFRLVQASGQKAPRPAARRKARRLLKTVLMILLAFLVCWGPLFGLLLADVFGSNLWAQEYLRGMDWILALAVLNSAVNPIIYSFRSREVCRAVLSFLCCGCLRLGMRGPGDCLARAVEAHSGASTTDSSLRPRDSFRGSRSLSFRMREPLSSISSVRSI
Sequence of Beta-2 adrenergic receptor (P07550 whole entry): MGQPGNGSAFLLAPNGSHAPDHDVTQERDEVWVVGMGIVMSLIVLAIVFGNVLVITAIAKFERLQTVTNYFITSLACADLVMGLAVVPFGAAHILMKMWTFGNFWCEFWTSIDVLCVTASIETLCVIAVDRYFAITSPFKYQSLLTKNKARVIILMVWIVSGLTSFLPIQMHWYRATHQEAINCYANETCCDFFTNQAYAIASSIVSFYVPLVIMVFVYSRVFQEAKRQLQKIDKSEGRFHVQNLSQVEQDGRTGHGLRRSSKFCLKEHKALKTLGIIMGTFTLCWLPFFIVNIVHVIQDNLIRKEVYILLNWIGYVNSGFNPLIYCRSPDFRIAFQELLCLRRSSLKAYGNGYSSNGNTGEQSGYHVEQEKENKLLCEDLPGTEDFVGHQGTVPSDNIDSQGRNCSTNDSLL
Sequence of G-protein coupled receptor 55 (Q9Y2T6 whole entry): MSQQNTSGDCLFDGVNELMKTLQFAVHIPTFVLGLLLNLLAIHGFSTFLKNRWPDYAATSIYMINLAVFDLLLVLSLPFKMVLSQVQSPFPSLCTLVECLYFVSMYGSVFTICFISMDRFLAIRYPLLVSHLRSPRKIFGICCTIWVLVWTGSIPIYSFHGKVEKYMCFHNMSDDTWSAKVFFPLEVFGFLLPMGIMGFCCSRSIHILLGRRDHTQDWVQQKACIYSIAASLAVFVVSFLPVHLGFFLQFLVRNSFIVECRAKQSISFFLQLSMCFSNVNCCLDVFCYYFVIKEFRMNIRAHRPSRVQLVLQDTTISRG
Sequence of ATP-dependent molecular chaperone HSP82 (C4YTQ8 whole entry): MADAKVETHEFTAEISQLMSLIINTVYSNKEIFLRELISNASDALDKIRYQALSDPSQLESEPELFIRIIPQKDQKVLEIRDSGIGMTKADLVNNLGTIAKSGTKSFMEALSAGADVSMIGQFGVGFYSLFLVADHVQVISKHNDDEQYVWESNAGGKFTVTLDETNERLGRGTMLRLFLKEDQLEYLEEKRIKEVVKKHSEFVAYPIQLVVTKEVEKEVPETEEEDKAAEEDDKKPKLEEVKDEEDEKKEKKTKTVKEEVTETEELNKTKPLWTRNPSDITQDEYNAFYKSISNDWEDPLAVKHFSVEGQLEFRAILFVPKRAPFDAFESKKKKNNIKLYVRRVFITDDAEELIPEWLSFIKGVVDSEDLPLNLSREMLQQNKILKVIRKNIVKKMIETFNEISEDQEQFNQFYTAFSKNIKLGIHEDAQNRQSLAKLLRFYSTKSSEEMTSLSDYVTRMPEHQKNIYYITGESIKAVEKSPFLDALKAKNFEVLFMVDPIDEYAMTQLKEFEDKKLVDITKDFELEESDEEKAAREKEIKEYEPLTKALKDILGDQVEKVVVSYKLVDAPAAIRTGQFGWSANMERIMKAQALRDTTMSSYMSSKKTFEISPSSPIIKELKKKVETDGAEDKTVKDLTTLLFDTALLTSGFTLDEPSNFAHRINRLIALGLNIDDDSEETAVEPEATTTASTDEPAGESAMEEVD
Sequence of Serine/threonine-protein phosphatase (B9W6M3 whole entry): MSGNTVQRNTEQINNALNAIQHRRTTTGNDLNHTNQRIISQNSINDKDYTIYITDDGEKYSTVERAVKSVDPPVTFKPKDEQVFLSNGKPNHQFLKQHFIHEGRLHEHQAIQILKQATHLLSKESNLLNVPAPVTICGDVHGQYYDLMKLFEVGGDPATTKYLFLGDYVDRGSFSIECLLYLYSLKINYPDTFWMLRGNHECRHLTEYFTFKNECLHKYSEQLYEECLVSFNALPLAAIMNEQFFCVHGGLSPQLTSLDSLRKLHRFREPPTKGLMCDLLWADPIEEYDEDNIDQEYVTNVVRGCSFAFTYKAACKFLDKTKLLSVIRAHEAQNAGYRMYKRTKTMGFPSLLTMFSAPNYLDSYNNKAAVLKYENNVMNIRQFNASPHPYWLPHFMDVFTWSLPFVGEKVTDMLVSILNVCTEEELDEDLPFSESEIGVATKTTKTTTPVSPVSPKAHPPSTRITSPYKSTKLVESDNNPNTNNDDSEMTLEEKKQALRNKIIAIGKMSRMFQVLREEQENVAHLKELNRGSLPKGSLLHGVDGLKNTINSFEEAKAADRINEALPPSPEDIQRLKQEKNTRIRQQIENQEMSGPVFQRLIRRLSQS

CCCC(=O)N(C1CC(C)C(C#N)(C#N)C1(C#N)C#N)N(C)C (stereo not given)
IC50 (Fatty acid synthase [1]): 8.18 µM (active)
EC50 [2]: 35 µM (inactive)
IC50 [3]: 0.562 µM (active)
IC50 [4]: > 49.8 µM (not active)
IC50 [5]: 2.42 µM (active)
EC50 (Protein RecA): 1.34 µM (active)
AC50 [6]: 1.61 µM (active)
IC50 [7]: 9.68 µM (not active)
IC50 (Fatty acid synthase [8]): 8.51 µM (active)

CCOC(=O)c1c(-n2c(C)cc(C=C3C(=O)NC(=S)NC3=O)c2C)sc2c1CCCC2
AC50 [9]: 2.61 µM (active)
IC50 [10]: 10 µM (active)
EC50 [11]: > 32 µM (inactive)
CC50 (Vero): 11.9 µM (active)
IC50 (Hexokinase HKDC1): 23.1 µM (inactive)

CCCC(=O)NC(c1ccccc1Cl)c1ccc2cccnc2c1O (stereo not given)
AC50 [12]: 2.66 µM (active)
EC50 [13]: 0.656 µM (active)
EC50 [14]: > 180 µM (inactive)
AC50 [9]: 4.09 µM (active)
EC50 [15]: > 150 µM (inactive)
IC50 (HEK293 [16]): 9.95 µM (active)
EC50 (BJ [17]): 1.12 µM (active)
IC50 [18]: 1.44 µM (active)
EC50 (cells [19]): > 350 µM (not active)
AC50 (HEK293 [20]): 5.2 µM (active)
EC50 (BJ [21]): 2.49 µM (active)
EC50 [22]: 14.6 µM (active)
IC50 (HEK293 [23]): 7.04 µM (active)
AC50 (INS1): 0.63 µM (active)
AC50 [24]: 1.21 µM (active)
IC50 (Jurkat): 4.29 µM (active)
EC50 (cells [25]): 6.59 µM (active)
AC50 [26]: 1.27 µM (active)
EC50 (BJ [27]): 7.5 µM (active)
IC50 [28]: > 80 µM (inactive)
EC50 [29]: 1.86 µM (inconclusive)
